Results from patent US11993576B2, “N-benzyl-N-arylsulfonamide derivative and preparation and use thereof” (Hangzhou Yirui Pharmaceutical Technology Co., Ltd, priority 2019, dated 2024).

Target: human Kv1.3 (Homo sapiens, UniProt P22001)
Experiment: IonWorks automated patch clamp assay of inhibitory activity against Kv1.3
Type: cell-based
Conditions: automated patch clamp method; CHO-K1 cells stably expressing human Kv1.3
Procedure: I. IonWorks Automated Patch Clamp Assay of Inhibitory Activity Against Kv1.3
The principle and method for Kv1.3 IonWorks assay can be found in Schroeder et al. [Schroeder et al. J Biomol Screen 2003, 8(1):50-64]
Inhibitory activity of the compounds against Kv1.3 was assessed using a CHO-K1 recombinant cell line stably expressing human Kv1.3 (Charles River, Calif.). The cells were cultured in an F-12K culture medium containing 5% calf serum (Invitrogen, Carlsbad. Calif.) in an incubator at 37° C. and under air humidity with 6% CO2. Prior to be fed in the IonWorks system, the adherent cells were treated with Versene at 37° C. for 6-7 min. After gently beating the culture flask, the cells were re-suspended in a PBS phosphate buffer, and then were centrifuged at 50×g for 4 min. After a short grinding, the cells were eventually re-suspended in an external recording solution at a density of approximately 1×10^6/mL.
The compounds were dissolved in DMSO to formulate a final assay concentration of 300× on the master plate. The final gradient assay concentrations were […], 0.096, 0.048, 0.24, 1.2, 6 and 30 μM. All 300× stock solutions of each compound in DMSO were transferred to a 384-well plate with 2 μl per well. The plates were sealed and stored at −80° C. until the day of assay.
On the day of assay, the plates were each thawed at room temperature. After centrifugation, 198 μl of the external recording solution (with the components of: 130 mM Na-Gluconate, 20 mM NaCl, 4 mM KCl, 1 mM MgCl2, 1.8 mM CaCl2, 5 mM Glucose and 10 mM HEPES, pH7.3) was added and mixed thoroughly. This step provided a 1:100 dilution for the compounds. After addition of cells to IonWorks, a further 1:3 dilution was carried out, resulting in a total dilution of 1:300. At least 8 wells were reserved as blank control on each of the plates, i.e., containing only 0.3% DMSO. In addition, at least 8 wells were reserved as positive control to detect the specificity to cell signals. Fluoxetine, a compound as the positive control, was assayed at its maximum blocking concentration (100 μm) and secondary maximum blocking concentration (10 μm). In addition, an internal recording solution used in the assay (with the components of: 100 mM K-gluconate, 40 mM KCl, 1 mM MgCl2, 1 mM EGTA and 10 mM HEPES, pH7.3) contained Amphotericin B at a final concentration of 200 μg/mL to gain current channels inside the cells. The osmotic pressure of the solution was adjusted with sucrose.
Experimental procedures were carried out following the protocols as set by IonWorks Quattro system (Molecular Devices, San Jose, CA). The current of human Kv1.3 was elicited to 0 millivolt (mV) for four times by a pulse lasting 1 second. A potential of −80 mV was maintained between pulses, for 5 seconds. First, a early voltage application program was started in the IonWorks Quattro system, and then the compounds were added and incubated for 600 seconds. Next, a late voltage application program was started until completion of all assays.
The maximum peak outward currents both before and after addition of the compounds as well as the average tail current elicited when the fourth pulse rose to 0 mV were measured. The inhibitory activity of the compounds against Kv1.3 can be calculated by dividing the measured current amplitude after addition of the compounds by the measured current amplitude before addition of the compounds.
All data was calibrated by a data filtration program of the IonWorks Quattro system. The filtration standard was that: seal quality >30 MΩ, decrease of seal resistance <50% and current amplitude >200 pA.

Chain of human Kv1.3 (P22001 whole entry): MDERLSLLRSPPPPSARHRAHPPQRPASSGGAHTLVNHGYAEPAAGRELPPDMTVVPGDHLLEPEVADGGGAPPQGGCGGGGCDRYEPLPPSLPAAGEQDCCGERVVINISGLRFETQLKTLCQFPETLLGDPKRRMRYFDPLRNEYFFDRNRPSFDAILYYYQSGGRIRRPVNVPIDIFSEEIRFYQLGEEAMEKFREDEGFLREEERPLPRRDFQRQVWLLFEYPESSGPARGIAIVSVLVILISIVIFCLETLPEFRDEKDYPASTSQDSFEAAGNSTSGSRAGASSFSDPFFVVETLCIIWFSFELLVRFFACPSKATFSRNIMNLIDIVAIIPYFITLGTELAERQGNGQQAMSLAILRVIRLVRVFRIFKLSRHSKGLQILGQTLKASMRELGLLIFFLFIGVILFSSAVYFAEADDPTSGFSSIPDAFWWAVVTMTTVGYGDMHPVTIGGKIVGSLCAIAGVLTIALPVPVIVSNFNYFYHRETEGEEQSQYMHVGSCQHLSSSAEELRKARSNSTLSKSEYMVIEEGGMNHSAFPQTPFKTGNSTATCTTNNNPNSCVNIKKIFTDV

SMILES	IC50 [nM]
CCCS(=O)(=O)N(Cc1cncn1C)c1ccc(N2CCN(C(=O)OCC)CC2)c(C#N)c1 [Compound 35, Ethyl 4-(2-cyano-4-(N-((1-methyl-1H-imidazol-5-yl)methyl)propanesulfonamido)phenyl)piperazin-1-formate]	201
CCCS(=O)(=O)N(Cc1ccnn1C)c1ccc(N2CCN(C(=O)OCC)CC2)c(C#N)c1 [Compound 36, Ethyl 4-(2-cyano-4-(N-((1-methyl-1H-pyrazol-5-yl)methyl)propanesulfon-amido)phenyl)piperazin-1-formate]	130
CCCCS(=O)(=O)N(Cc1ccc(F)cc1)c1ccc(N2CCN(C(=O)N(C)C)CC2)c(C#N)c1 [Compound 38, 4-(2-cyano-4-(N-(4-fluorobenzyl)butanesulfonamido)phenyl)-N,N-dimethylpiperazin-1-formamide]	101
CC(C)CCS(=O)(=O)N(Cc1ccc(F)cc1)c1ccc(N2CCN(C(=O)N(C)C)CC2)c(C#N)c1 [Compound 39, 4-(2-cyano-4-((N-(4-fluorobenzyl)-3-methylbutyl)sulfonamido)phenyl)-N,N-dimethylpiperazin-1-formamide]	155
CN(C)C(=O)N1CCN(c2ccc(N(Cc3ccc(F)cc3)S(=O)(=O)CC(C)(C)C)cc2C#N)CC1 [Compound 40, 4-(2-cyano-4-((N-(4-fluorobenzyl)-2,2-dimethylpropyl)sulfonamido)phenyl)-N,N-dimethylpiperazin-1-formamide]	206
CCCS(=O)(=O)N(Cc1ccncc1)c1ccc(N2CCN(C(=O)N(C)C)CC2)c(C#N)c1 [Compound 41, 4-(2-cyano-4-(N-(pyridin-4-ylmethyl)propanesulfonamido)phenyl)-N,N-dimethylpiperazin-1-formamide]	131
CCCS(=O)(=O)N(Cc1ccncn1)c1ccc(N2CCN(C(=O)N(C)C)CC2)c(C#N)c1 [Compound 42, 4-(2-cyano-4-(N-(pyrimidin-4-ylmethyl)propanesulfonamido)phenyl)-N,N-dimethylpiperazin-1-formamide]	167
CCS(=O)(=O)N(Cc1ccc(F)cc1)c1ccc(N2CCN(S(=O)(=O)N(C)C)CC2)c(C#N)c1 [Compound 43, 4-(2-cyano-4-(N-(4-fluorobenzyl)ethanesulfonamido)phenyl)-N,N-dimethylpiperazin-1-sulfonamide]	124
CCCS(=O)(=O)N(Cc1ccc(OC)cc1)c1ccc(N2CCN(S(=O)(=O)N(C)C)CC2)c(C#N)c1 [Compound 45, 4-(2-cyano-4-(N-(4-methoxybenzyl)propanesulfonamido)phenyl)-N,N-dimethylpiperazin-1-sulfonamide]	224
CN(C)S(=O)(=O)N1CCN(c2ccc(N(Cc3ccnn3C)S(=O)(=O)c3ccc(F)cc3)cc2C#N)CC1 [Compound 46, 4-(2-cyano-4-((4-fluoro-N-((1-methyl-1H-pyrazol-5-yl)methyl)phenyl)sulfonamido)phenyl)-N,N-dimethylpiperazin-1-sulfonamide]	356
CN(C)S(=O)(=O)N1CCN(c2ccc(N(Cc3ccc(F)cc3F)S(=O)(=O)CC3CC3)cc2C#N)CC1 [Compound 47, 4-(2-cyano-4-((1-cyclopropyl-N-(2,4-difluorobenzyl)methyl)sulfonamido)phenyl)-N,N-dimethylpiperazin-1-sulfonamide]	124
CN(C)S(=O)(=O)N1CCN(c2ccc(N(Cc3ccc(F)cc3)S(=O)(=O)c3cccnc3)cc2C#N)CC1 [Compound 48, 4-(2-cyano-4-(-N-(4-fuorophenyl)pyridin-3-sulfonamido)phenyl)-N,N-dimethylpiperazin-1-sulfonamide]	145
CCCS(=O)(=O)N(Cc1ccc(F)cc1)c1ccc(N2CCN(C(=O)OCC)CC2)c(C(F)(F)F)c1 [Compound 49]	160
CCCS(=O)(=O)N(Cc1ccc(F)cc1)c1ccc(OC2CCNCC2)c(C#N)c1 [Compound 50, N-(3-cyano-4-(piperidin-4-yloxy)phenyl)-N-(4-fluorobenzyl) propanesulfonamide]	370
CCCS(=O)(=O)N(Cc1ccc(F)cc1)c1ccc(SC2CCNCC2)c(C#N)c1 [Compound 51, N-(3-cyano-4-(piperidin-4-ylthio)phenyl)-N-(4-fluorobenzyl) propanesulfonamide]	412
CCCS(=O)(=O)N(Cc1ccc(F)cc1)c1ccc(NC2CCNCC2)c(C#N)c1 [Compound 52, N-(3-cyano-4-(piperidin-4-ylamino)phenyl)-N-(4-fluorobenzyl) propanesulfonamide]	139
CCCS(=O)(=O)N(Cc1ccc(F)cc1)c1ccc(OC2CCN(C(C)=O)CC2)c(C#N)c1 [Compound 53, N-(4-((1-acetylpiperidin-4-yl)oxy)-3-cyanophenyl)-N-(4-fluorobenzyl) propanesulfonamide]	291
CCCS(=O)(=O)N(Cc1ccc(F)cc1)c1ccc(SC2CCN(C(C)=O)CC2)c(C#N)c1 [Compound 54, N-(4-((1-acetylpiperidin-4-yl)thio)-3-cyanophenyl)-N-(4-fluorobenzyl) propanesulfonamide]	389
CCCS(=O)(=O)N(Cc1ccc(F)cc1)c1ccc(NC2CCN(C(C)=O)CC2)c(C#N)c1 [Compound 55, N-(4-((1-acetylpiperidin-4-yl)amino)-3-cyanophenyl)-N-(4-fluorobenzyl)propanesulfonamide]	160
CCCS(=O)(=O)N(Cc1ccc(F)cc1)c1ccc(OC2CCN(C=O)CC2)c(C#N)c1 [Compound 56, N-(4-((1-formylpiperidin-4-yl)oxy)-3-cyanophenyl)-N-(4-fluorobenzyl) propanesulfonamide]	250
CCCS(=O)(=O)N(Cc1ccc(F)cc1)c1ccc(SC2CCN(C=O)CC2)c(C#N)c1 [Compound 57, N-(4-((1-formylpiperidin-4-yl)thio)-3-cyanophenyl)-N-(4-fluorobenzyl) propanesulfonamide]	254
CCCS(=O)(=O)N(Cc1ccc(F)cc1)c1ccc(NC2CCN(C=O)CC2)c(C#N)c1 [Compound 58, N-(4-((1-formylpiperidin-4-yl)amino)-3-cyanophenyl)-N-(4-fluoro-benzyl)propanesulfonamide]	279
CC(=O)N1CCC(Oc2ccc(N(Cc3ccccc3)S(=O)(=O)c3ccccc3)cc2C#N)CC1 [Compound 59, N-(4-((1-acetylpiperidin-4-yl)oxy)-3-cyanophenyl)-N-benzylbenzenesulfonamide]	441
N#Cc1cc(N(Cc2ccccc2)S(=O)(=O)c2ccccc2)ccc1OC1CCN(C=O)CC1 [Compound 60, N-(4-((1-formylpiperidin-4-yl)oxy)-3-cyanophenyl)-N-benzylbenzenesulfonamide]	332
